From publication PMC9572083, “Hybrids of 1,4-Quinone with Quinoline Derivatives: Synthesis, Biological Activity, and Molecular Docking with DT-Diaphorase (NQO1)” (Molecules, 2022) come the findings set out here.

The IC50 is the point on the concentration scale where inhibition reaches its midpoint. As a reminder, the melting point is the temperature, or range, at which the solid turns liquid.

The test system of the first series is SK-OV-3 cells. Kind of series: Cytotoxic activity, WST-1 assay, ovarian cancer SK-OV-3. The format is cell-based, human. As to conditions: HFF-1 vs SK-OV-3. The text has this:
(§1) Anticancer activity of compounds 11–14 was designated against following human cancer cell lines: melanoma (Colo-829), ovarian cancer (SK-OV-3), breast cancer (MDA-MB-231, T47D and MCF-7), lung cancer (A549) and normal fibroblasts (HFF-1). As a reference substance, the doxorubicin was used. The results are presented in Table 1 as IC50, where IC50 means the concentration of tested compounds (µM) causing the growth inhibition of 50% for given tumor cells. The negative value (Neg.) means that the IC50 is higher than 30 µM. Selectivity index (SI) as the ratio of the IC50 for normal fibroblast (HFF-1) to IC50 of the corresponding cell line, is presented in Table S2.
(§2) Compounds 7–14 and doxorubicin were tested for cytotoxic activity in vitro against panel of human cancer cell lines: melanoma (Colo-829, ATCC, Rockville, MD, USA), ovarian cancer (SK-OV-3, ATCC, Rockville, MD, USA), breast cancer (T47D, MCF-7, and MDA-MB-231, ATCC, Rockville, MD, USA) and lung cancer (A549, ATCC, Rockville, MD, USA). The cultured cells were kept at 37 °C and 5% CO2. The cells were seeded (5 × 10^4 cells/well/[…] DMEM supplemented with 10% FCS and streptomycin/penicillin) using 96-well plates (Nunc Thermo Fisher Scientific, Waltham, MA, USA). The tested compounds 7–14 with the concentration of 1–100 µg/mL DMSO were inducted with the cancer cells for 72 h. The WST-1-formazan (proliferation reagent WST-1 assay, Roche Diagnostics, Mannheim, Germany) was detected using a microplate reader at 450 nm. Results were expressed as a mean value of at least three independent experiments performed in triplicate.
Background: Tetrazolium dyes change colour on reduction, which living cells bring about.
For `O=C1C(Cl)=C(Oc2cccc3cccnc23)C(=O)c2ccccc21` [Compound 14a, 2-chloro-3[(quinolin-8-yl)oxy]naphthalene-1,4-dione], the “SI (IC50 HFF-1/IC50 cancer line) SK-OV-3” value stood at 7.54.
The same measure, in the same setting: for `O=Cc1ccc2cccc(OC3=C(Cl)C(=O)c4ccccc4C3=O)c2n1` [Compound 14c, 8-[(3-chloro-1,4-dioxo-1,4-dihydronaphthalen-2-yl)oxy]quinoline-2-carbaldehyde] the value was 71.84.

Staying with this series, now noted: Homo sapiens; ovarian cancer SK-OV-3, 72 h, WST-1.
With `O=C1C(Cl)=C(Oc2cccc3cccnc23)C(=O)c2ccccc21` [Compound 14a, 2-chloro-3[(quinolin-8-yl)oxy]naphthalene-1,4-dione], it took 1.7 ± 0.29 µM to reach half-maximal inhibition (IC50).
Still for that read-out and setting: for `O=Cc1ccc2cccc(OC3=C(Cl)C(=O)c4ccccc4C3=O)c2n1` [Compound 14c, 8-[(3-chloro-1,4-dioxo-1,4-dihydronaphthalen-2-yl)oxy]quinoline-2-carbaldehyde] the value was 0.25 ± 0.06 µM.

Another series relates to HFF-1 cells. Nature of the series: Cytotoxic activity, WST-1 assay, normal fibroblasts HFF-1. The format is cell-based. As to conditions: Homo sapiens, normal fibroblasts HFF-1, 72 h.
Description: as §1, §2
As for `O=C1C(Cl)=C(Oc2cccc3cccnc23)C(=O)c2ccccc21` [Compound 14a, 2-chloro-3[(quinolin-8-yl)oxy]naphthalene-1,4-dione], the half-inhibitory concentration (IC50) is 12.8 ± 0.85 µM.
On the same count and under the same terms, for `O=Cc1ccc2cccc(OC3=C(Cl)C(=O)c4ccccc4C3=O)c2n1` [Compound 14c, 8-[(3-chloro-1,4-dioxo-1,4-dihydronaphthalen-2-yl)oxy]quinoline-2-carbaldehyde] the value was 18 ± 1.75 µM.

The target of a further series is T1, NQO1 (DT-diaphorase, EC 1.6.5.5, human recombinant) (Homo sapiens, UniProt P15559).
T1 construct: purchased Sigma-Aldrich
T1 sequence (P15559 whole entry): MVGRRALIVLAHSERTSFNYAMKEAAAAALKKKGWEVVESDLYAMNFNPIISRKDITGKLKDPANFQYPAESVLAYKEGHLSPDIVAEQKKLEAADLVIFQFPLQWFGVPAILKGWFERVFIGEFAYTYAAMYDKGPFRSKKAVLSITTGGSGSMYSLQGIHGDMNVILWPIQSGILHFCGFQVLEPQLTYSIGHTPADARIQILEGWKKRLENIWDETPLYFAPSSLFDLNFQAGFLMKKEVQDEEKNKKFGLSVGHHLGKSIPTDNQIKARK
Nature of the series: NQO1 substrate NADPH recycling enzymatic assay. As to conditions: compound 10 µmol/L, pH 7.4, 25 °C, absorbance at 340 nm. The series is classed as biochemical. On the procedure: The interaction between 1,4-quinone moiety of hybrid and NQO1 protein leads to reduction in quinone to hydroquinone and production of reactive oxide form (ROS). According to a literature method, the ability of hybrids 11–14 and streptonigrin (ST) to be a substrate for NQO1 was examined by measuring the oxidation of NADPH to NADP^+ [29, 32].
Compounds 11–14 (10 µmol/L) were tested as NQO1 substrates using the NADPH recycling assay according to the literature method. The recombinant NQO1 (DT-diaphorase, EC 1.6.5.5, human recombinant, Sigma-Aldrich) was used, and the oxidation of NADPH to NADP^+ was measured at the absorption wavelength of 340 nm on the BioTek 800TS microplate reader (BioKom, Janki, Poland). Compounds were dissolved in dimethyl sulfoxide (2 µL) and added to the 96-well plate. The NQO1 protein (1.4 µg/mL) in 50 mmol/L potassium phosphate buffer (pH = 7.4) was added to each well (198 µL) (Nunc Thermo Fisher Scientific, Waltham, MA, USA). Once the 96-well plate was filled with the assay solutions, except the NADPH solution, it was placed into the instrument and left to sit for 5 min before starting the measurements. The enzymatic reaction was initiated by automatically dispensing the NADPH solution into the wells, and data were recorded at 10 s intervals for 5 min at 25 °C. The linear part of the absorbance vs. time graphs (the first 20 s to 1 min) was fitted, and the slopes were calculated. NADPH oxidation rates were compared with reactions lacking the tested compound. Initial velocities were calculated, and data were expressed as µmol NADPH/µmol NQO1/min. All reactions were carried out at least in triplicate.
With `O=C1C(Cl)=C(Oc2cccc3cccnc23)C(=O)c2ccccc21` [Compound 14a, 2-chloro-3[(quinolin-8-yl)oxy]naphthalene-1,4-dione], the “NQO1 activity (enzymatic conversion rate)” value was determined as 1282 ± 29 µmol NADPH/µmol NQO1/min.
Turning to `O=Cc1ccc2cccc(OC3=C(Cl)C(=O)c4ccccc4C3=O)c2n1` [Compound 14c, 8-[(3-chloro-1,4-dioxo-1,4-dihydronaphthalen-2-yl)oxy]quinoline-2-carbaldehyde], the “NQO1 activity (enzymatic conversion rate)” value is reported as 550 ± 62 µmol NADPH/µmol NQO1/min.

System in another series: not given
Test: not given
Conditions: not given
The molecule `O=C1C(Cl)=C(Oc2cccc3cccnc23)C(=O)c2ccccc21` [Compound 14a, 2-chloro-3[(quinolin-8-yl)oxy]naphthalene-1,4-dione] registered a melting point of 115 to 117 °C.
`O=Cc1ccc2cccc(OC3=C(Cl)C(=O)c4ccccc4C3=O)c2n1` [Compound 14c, 8-[(3-chloro-1,4-dioxo-1,4-dihydronaphthalen-2-yl)oxy]quinoline-2-carbaldehyde] showed a melting point of 131 to 133 °C.

The subject of a further series is Colo-829 cells. Kind of series: Cytotoxic activity, WST-1 assay, melanoma Colo-829. The series is classed as cell-based, human. The note with it: HFF-1 vs Colo-829.
Description: as §1, §2
`O=C1C(Cl)=C(Oc2cccc3cccnc23)C(=O)c2ccccc21` [Compound 14a, 2-chloro-3[(quinolin-8-yl)oxy]naphthalene-1,4-dione]: the “SI (IC50 HFF-1/IC50 cancer line) Colo-829” value stood at 0.84.

The same series, now with this note: Homo sapiens; melanoma Colo-829, 72 h, WST-1.
Take `O=C1C(Cl)=C(Oc2cccc3cccnc23)C(=O)c2ccccc21` [Compound 14a, 2-chloro-3[(quinolin-8-yl)oxy]naphthalene-1,4-dione]: 15.3 ± 2.56 µM corresponded to half-maximal inhibition (IC50).
On the same count and under the same terms, under `O=Cc1ccc2cccc(OC3=C(Cl)C(=O)c4ccccc4C3=O)c2n1` [Compound 14c, 8-[(3-chloro-1,4-dioxo-1,4-dihydronaphthalen-2-yl)oxy]quinoline-2-carbaldehyde] stands more than 30 µM.

A further series concerns T47D cells. Kind of series: Cytotoxic activity, WST-1 assay, breast cancer T47D. The format is cell-based, human. The note with it: HFF-1 vs T47D.
Description: as §1, §2
Take `O=Cc1ccc2cccc(OC3=C(Cl)C(=O)c4ccccc4C3=O)c2n1` [Compound 14c, 8-[(3-chloro-1,4-dioxo-1,4-dihydronaphthalen-2-yl)oxy]quinoline-2-carbaldehyde]: the “SI (IC50 HFF-1/IC50 cancer line) T47D” value amounted to 11.09.

The series is the same for the next values; noted with them: Homo sapiens; breast cancer T47D, 72 h, WST-1.
`O=C1C(Cl)=C(Oc2cccc3cccnc23)C(=O)c2ccccc21` [Compound 14a, 2-chloro-3[(quinolin-8-yl)oxy]naphthalene-1,4-dione] registered a half-inhibitory concentration (IC50) of more than 30 µM.
In turn, `O=Cc1ccc2cccc(OC3=C(Cl)C(=O)c4ccccc4C3=O)c2n1` [Compound 14c, 8-[(3-chloro-1,4-dioxo-1,4-dihydronaphthalen-2-yl)oxy]quinoline-2-carbaldehyde] displayed an IC50 of 1.62 ± 0.21 µM.

A further series has as its system A549 cells. Kind of series: Cytotoxic activity, WST-1 assay, lung cancer A549. The series is classed as cell-based, human. As to conditions: HFF-1 vs A549.
Description: as §1, §2
For the molecule `O=C1C(Cl)=C(Oc2cccc3cccnc23)C(=O)c2ccccc21` [Compound 14a, 2-chloro-3[(quinolin-8-yl)oxy]naphthalene-1,4-dione], the “SI (IC50 HFF-1/IC50 cancer line) A549” value turned out to be 19.71.
On the same count and under the same terms, for `O=Cc1ccc2cccc(OC3=C(Cl)C(=O)c4ccccc4C3=O)c2n1` [Compound 14c, 8-[(3-chloro-1,4-dioxo-1,4-dihydronaphthalen-2-yl)oxy]quinoline-2-carbaldehyde] the value was 43.80.

Still in this series, the particulars now being: Homo sapiens; lung cancer A549, 72 h, WST-1.
Regarding `O=C1C(Cl)=C(Oc2cccc3cccnc23)C(=O)c2ccccc21` [Compound 14a, 2-chloro-3[(quinolin-8-yl)oxy]naphthalene-1,4-dione], 0.65 ± 0.07 µM corresponded to half-maximal inhibition (IC50).
Take `O=Cc1ccc2cccc(OC3=C(Cl)C(=O)c4ccccc4C3=O)c2n1` [Compound 14c, 8-[(3-chloro-1,4-dioxo-1,4-dihydronaphthalen-2-yl)oxy]quinoline-2-carbaldehyde]: half-maximal inhibition (IC50) required 0.41 ± 0.06 µM.

The test system of the next series is MCF-7 cells. Kind of series: Cytotoxic activity, WST-1 assay, breast cancer MCF-7. The format is cell-based, human. As to conditions: HFF-1 vs MCF-7.
Description: as §1, §2
Take `O=C1C(Cl)=C(Oc2cccc3cccnc23)C(=O)c2ccccc21` [Compound 14a, 2-chloro-3[(quinolin-8-yl)oxy]naphthalene-1,4-dione]: the “SI (IC50 HFF-1/IC50 cancer line) MCF-7” value is on record as 0.91.

The same series, now with this note: Homo sapiens, MCF7; breast cancer MCF-7, 72 h, WST-1.
`O=C1C(Cl)=C(Oc2cccc3cccnc23)C(=O)c2ccccc21` [Compound 14a, 2-chloro-3[(quinolin-8-yl)oxy]naphthalene-1,4-dione] showed an IC50 of 14.1 ± 0.98 µM.
As for `O=Cc1ccc2cccc(OC3=C(Cl)C(=O)c4ccccc4C3=O)c2n1` [Compound 14c, 8-[(3-chloro-1,4-dioxo-1,4-dihydronaphthalen-2-yl)oxy]quinoline-2-carbaldehyde], the IC50 was more than 30 µM.

The subject of a further series is MDA-MB-231 cells. Nature of the series: Cytotoxic activity, WST-1 assay, breast cancer MDA-MB-231. The format is cell-based, human. The note with it: HFF-1 vs MDA-MB-231.
Description: as §1, §2
For the molecule `O=C1C(Cl)=C(Oc2cccc3cccnc23)C(=O)c2ccccc21` [Compound 14a, 2-chloro-3[(quinolin-8-yl)oxy]naphthalene-1,4-dione], the “SI (IC50 HFF-1/IC50 cancer line) MDA-MB-231” value was 0.84.
Still for that read-out and setting: under `O=Cc1ccc2cccc(OC3=C(Cl)C(=O)c4ccccc4C3=O)c2n1` [Compound 14c, 8-[(3-chloro-1,4-dioxo-1,4-dihydronaphthalen-2-yl)oxy]quinoline-2-carbaldehyde] stands 0.71.

Staying with this series, now noted: Homo sapiens; breast cancer MDA-MB-231, 72 h, WST-1.
Molecule `O=C1C(Cl)=C(Oc2cccc3cccnc23)C(=O)c2ccccc21` [Compound 14a, 2-chloro-3[(quinolin-8-yl)oxy]naphthalene-1,4-dione] yielded an IC50 of 15.2 ± 0.85 µM.
As for `O=Cc1ccc2cccc(OC3=C(Cl)C(=O)c4ccccc4C3=O)c2n1` [Compound 14c, 8-[(3-chloro-1,4-dioxo-1,4-dihydronaphthalen-2-yl)oxy]quinoline-2-carbaldehyde], the IC50 worked out at 25.1 ± 0.97 µM.
